Laboratory results as given in patent US9394297B2, “Amides as pim inhibitors” (AMGEN INC., priority 2012, dated 2016).
Like-named read-outs stand apart in the source and are kept apart here.

Tests used:
Pim-2 [1] = molecular target: T1, Pim-2 (Homo sapiens (Human), UniProt Q9P1W9); test: Pim-Mn enzyme assay (HTRF, 384-well), Pim-2; type: biochemical; conditions: Pim-2 enzyme 0.5 pM, ATP 1.5 μM, BAD (S112) 0.5 μM, HTRF, 22-point curve; read-out: Pim-2-Mn IC50 IP
[2] = tested on: KMS-12-BM myeloma cell line; test: Pim KMS-12 cell assay (phospho-BAD S112 / total BAD, MSD)
Pim-1 [3] = molecular target: T2, Pim-1 (Homo sapiens (Human), UniProt P11309); test: Pim enzyme assay (HTRF, 96-well), Pim-1; type: biochemical; conditions: full length recombinant Pim-1, biotinylated-BAD (S112) peptide, 10-point curve, 2 h RT, read-out: Pim-1 IC50 IP
Procedure, shortened: (§1)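 HTRF detection of biotinylated BAD (S112) phosphorylation by full-length recombinant His-tagged Pim-1 or Pim-2 in 60 mM Hepes pH 7.0, 0.05% BSA, 2 mM DTT at 22 °C: 2 h for Pim-1, 45 min for Pim-2. Stopped with EDTA; IC50 from 4-parameter logistic fit of percent of control.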

Pim-2 [4] = molecular target: T1, Pim-2; test: Pim enzyme assay (HTRF, 96-well), Pim-2; type: biochemical; conditions: full length recombinant Pim-2, biotinylated-BAD (S112) peptide, 10-point curve, 45 min RT, read-out: Pim-2 IC50 IP
Procedure, shortened: as §1

Pim-1 [5] = molecular target: T2, Pim-1; test: Pim-Mn enzyme assay (HTRF, 384-well), Pim-1; type: biochemical; conditions: Pim-1 enzyme 5 pM, ATP 1.5 μM, BAD (S112) 0.5 μM, HTRF, 22-point curve; read-out: Pim-1-Mn IC50 IP
[6] = read-out: KMS-12-BM IC50 IP, KMS-12-BM cells, phospho-BAD (S112) vs total BAD, 1 hour 50 min with compound
[7] = Homo sapiens, KMS-12-BM, read-out: KMS-12-BM IC50 IP, KMS-12-BM cells, phospho-BAD (S112) vs total BAD, 1 hour 50 min with compound

T2 sequence (P11309 whole entry): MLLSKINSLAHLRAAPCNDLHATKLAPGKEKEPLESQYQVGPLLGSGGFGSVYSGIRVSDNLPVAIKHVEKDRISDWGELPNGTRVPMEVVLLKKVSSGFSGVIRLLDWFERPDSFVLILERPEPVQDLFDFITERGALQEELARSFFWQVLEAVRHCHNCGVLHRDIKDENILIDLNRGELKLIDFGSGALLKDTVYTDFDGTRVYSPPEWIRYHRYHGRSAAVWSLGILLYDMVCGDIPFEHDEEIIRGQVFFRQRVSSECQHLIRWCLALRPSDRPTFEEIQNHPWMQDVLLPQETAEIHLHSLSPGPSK
T1 sequence (Q9P1W9 whole entry): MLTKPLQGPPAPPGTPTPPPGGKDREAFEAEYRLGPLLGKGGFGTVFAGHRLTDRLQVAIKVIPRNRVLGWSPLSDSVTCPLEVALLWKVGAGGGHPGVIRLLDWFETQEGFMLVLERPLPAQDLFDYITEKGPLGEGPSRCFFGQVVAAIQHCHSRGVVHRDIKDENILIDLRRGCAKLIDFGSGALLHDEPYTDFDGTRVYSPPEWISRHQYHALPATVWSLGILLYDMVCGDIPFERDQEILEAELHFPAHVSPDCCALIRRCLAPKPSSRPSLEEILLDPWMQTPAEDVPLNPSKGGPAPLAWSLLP

Structure (SMILES)	IC50 (Pim-2 [1]) [nM]	IC50 [2, 6] [nM]	IC50 (Pim-1 [3]) [nM]	IC50 (Pim-2 [4]) [nM]	IC50 (Pim-1 [5]) [nM]	IC50 [2, 7] [nM]
Cc1nc2cccc(-c3cc4c([nH]3)CCNC4=O)c2nc1N[C@H]1CC[C@@H](N)C1 (single isomer, unassigned) [Example 142, 2-(3-((cis-3-aminocyclopentyl)amino)-2-methylquinoxalin-5-yl)-6,7-dihydro-1H-pyrrolo[3,2-c]pyridin-4(5H)-one]	1.4	2260	1.9	5.3	0.7	
Cc1nc2cccc(-c3cc4c([nH]3)CCNC4=O)c2nc1NC1(C)CCC1 [Example 144, 2-(2-methyl-3-((1-methylcyclobutyl)amino)quinoxalin-5-yl)-6,7-dihydro-1H-pyrrolo[3,2-c]pyridin-4(5H)-one]	0.6		2	1.6	0.8	67.8
Cc1nc2cccc(-c3cc4c([nH]3)CCNC4=O)c2nc1NC1CCC1 [Example 131, 2-(3-(cyclobutylamino)-2-methylquinoxalin-5-yl)-6,7-dihydro-1H-pyrrolo[3,2-c]pyridin-4(5H)-one]	0.8		5	2.6	1.6	142
Cc1nc2cccc(-c3cc4c([nH]3)CCNC4=O)c2nc1N[C@H]1CC[C@@H](N)C1 (single isomer, unassigned) [Example 143, 2-(3-((cis-3-aminocyclopentyl)amino)-2-methylquinoxalin-5-yl)-6,7-dihydro-1H-pyrrolo[3,2-c]pyridin-4(5H)-one]	0.4	440	0.7	0.8	0.3	

Now from value to molecule:

IC50 (Pim-2 [1]) [nM]	IC50 [2, 6] [nM]	IC50 (Pim-1 [3]) [nM]	IC50 (Pim-2 [4]) [nM]	IC50 (Pim-1 [5]) [nM]	IC50 [2, 7] [nM]	Structure (SMILES)
0.6		2.9	1.4	1.9	176	Cc1nc2cccc(-c3cc4c([nH]3)CCNC4=O)c2nc1NCC(C)(C)C [Example 147, 2-(2-methyl-3-(neopentylamino)quinoxalin-5-yl)-6,7-dihydro-1H-pyrrolo[3,2-c]pyridin-4(5H)-one]
3		8.9	7.9	6.5	481	Cc1nc2cccc(-c3cc4c([nH]3)CCNC4=O)c2nc1NC1(CO)CCC1 [Example 146, 2-(3-((1-(hydroxymethyl)cyclobutyl)amino)-2-methylquinoxalin-5-yl)-6,7-dihydro-1H-pyrrolo[3,2-c]pyridin-4(5H)-one]
1.7		3	2.8	2.5	136	Cc1nc2cccc(-c3cc4c([nH]3)CCNC4=O)c2nc1NC(C)(C)CO [Example 201, 2-(3-((1-hydroxy-2-methylpropan-2-yl)amino)-2-methylquinoxalin-5-yl)-6,7-dihydro-1H-pyrrolo[3,2-c]pyridin-4(5H)-one]
